The values below come from PubChem BioAssay AID256 (DTP/NCI, 2004).

The test concerns CD2F1 mice, L1210 leukemia ip, survival T/C. The test is described as follows: NCI In Vivo Anticancer Drug Screen. Data for tumor model L1210 Leukemia (intraperitoneal) in CD2F1 (CDF1) mice. The conditions noted are these: endpoint: mean survival time, higher = longer survival. Put shortly:
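Implant tumor; dose compound or vehicle; measure endpoint in both groups; report treated divided by control.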

[1] abbreviates: dose: 50.0 mg/kg/injection, schedule: Q01DX009 (ip), vehicle: saline with Tween-80.
Where [2] appears, read: dose: 100.0 mg/kg/injection, schedule: Q04DX003 (ip), vehicle: saline with Tween-80.
[3] abbreviates: dose: 200.0 mg/kg/injection, schedule: Q04DX003 (ip), vehicle: saline with Tween-80.
Setting [4] is: dose: 100.0 mg/kg/injection, schedule: Q01DX009 (ip), vehicle: saline with Tween-80.
Where [5] appears, read: dose: 400.0 mg/kg/injection, schedule: Q04DX003 (ip), vehicle: saline with Tween-80.

The structures appear in SMILES notation. Inconclusive results and toxic doses are left out.

As for `CCOC(CNC(C)c1ccc2cc(OC)c(OC)cc2c1)OCC` (stereo not given), the T/C is, setting by setting: (dose: 12.5 mg/kg/injection, schedule: Q01DX009 (ip), vehicle: Klucel (hydroxypropylcellulose) (HPC)) 97 % of control; (dose: 25.0 mg/kg/injection, schedule: Q01DX009 (ip), vehicle: Klucel (hydroxypropylcellulose) (HPC)) 92 % of control; (dose: 50.0 mg/kg/injection, schedule: Q01DX009 (ip), vehicle: Klucel (hydroxypropylcellulose) (HPC)) 89 % of control; (dose: 100.0 mg/kg/injection, schedule: Q01DX009 (ip), vehicle: Klucel (hydroxypropylcellulose) (HPC)) 95 % of control; (dose: 200.0 mg/kg/injection, schedule: Q01DX009 (ip), vehicle: Klucel (hydroxypropylcellulose) (HPC)) 100 % of control; (dose: 400.0 mg/kg/injection, schedule: Q01DX009 (ip), vehicle: Klucel (hydroxypropylcellulose) (HPC)) 90 % of control.

On to `c1ccc(C(c2ccccc2)[n+]2ccccc2)cc1`, for which the T/C is, setting by setting: (dose: 5.0 mg/kg/injection, schedule: Q01DX009 (ip), vehicle: saline) 98 % of control; (dose: 5.0 mg/kg/injection, schedule: Q04DX003 (ip), vehicle: saline) 104 % of control; (dose: 10.0 mg/kg/injection, schedule: Q01DX009 (ip), vehicle: saline) 102 % of control; (dose: 10.0 mg/kg/injection, schedule: Q04DX003 (ip), vehicle: saline) 103 % of control; (dose: 20.0 mg/kg/injection, schedule: Q04DX003 (ip), vehicle: saline) 109 % of control.

In the case of `COC1OC(CO)C2OC(=O)NC2C1O` (stereo not given), the T/C reads like this: (dose: 100.0 mg/kg/injection, schedule: Q04DX003 (ip), vehicle: saline) 98 % of control; (dose: 200.0 mg/kg/injection, schedule: Q04DX003 (ip), vehicle: saline) 94 % of control; (dose: 400.0 mg/kg/injection, schedule: Q04DX003 (ip), vehicle: saline) 100 % of control.

In the case of `CNCCc1ccc2cc(OC)c(OC)cc2c1`, the T/C runs as follows: (dose: 25.0 mg/kg/injection, schedule: Q01DX009 (ip), vehicle: saline sonified) 104 % of control; (dose: 50.0 mg/kg/injection, schedule: Q01DX009 (ip), vehicle: saline sonified) 104 % of control; (dose: 100.0 mg/kg/injection, schedule: Q01DX009 (ip), vehicle: saline sonified) 104 % of control.

As for `CC(NC(=O)c1ccc(Cl)cc1Cl)c1ccccc1` (stereo not given), the T/C is, setting by setting: (dose: 75.0 mg/kg/injection, schedule: Q04DX003 (ip), vehicle: saline with Tween-80) 101 % of control; (dose: 150.0 mg/kg/injection, schedule: Q04DX003 (ip), vehicle: saline with Tween-80) 101 % of control; (dose: 300.0 mg/kg/injection, schedule: Q04DX003 (ip), vehicle: saline with Tween-80) 101 % of control.

For `CC(C)(CN=Cc1ccccc1[O-])N=Cc1ccccc1[O-].[O]=[V]`, the T/C is 89 % of control (dose: 12.5 mg/kg/injection, schedule: Q01DX009 (ip), vehicle: saline with Tween-80); 96 % of control (dose: 25.0 mg/kg/injection, schedule: Q01DX009 (ip), vehicle: saline with Tween-80); 91 % of control under setting [1]; 100 % of control under setting [2]; 88 % of control under setting [3].

Regarding `N#CSCc1ccccc1Cl`, the T/C is, setting by setting: (dose: 2.5 mg/kg/injection, schedule: Q01DX009 (ip), vehicle: saline sonified) 91 % of control; (dose: 5.0 mg/kg/injection, schedule: Q01DX009 (ip), vehicle: saline sonified) 96 % of control; (dose: 5.0 mg/kg/injection, schedule: Q04DX003 (ip), vehicle: saline with Tween-80) 95 % of control; (dose: 10.0 mg/kg/injection, schedule: Q01DX009 (ip), vehicle: saline sonified) 96 % of control; (dose: 10.0 mg/kg/injection, schedule: Q04DX003 (ip), vehicle: saline with Tween-80) 86 % of control.

With `COc1ccc(S(=O)(=O)NCCN(C)C)cc1NC(C)=O`, the T/C (dose: 100.0 mg/kg/injection, schedule: Q01DX001 (ip), vehicle: saline) was 90 % of control; the T/C (dose: 200.0 mg/kg/injection, schedule: Q01DX001 (ip), vehicle: saline) is 93 % of control; the T/C (dose: 400.0 mg/kg/injection, schedule: Q01DX001 (ip), vehicle: saline) was 100 % of control.

As to `C[N+](C)(CCCCCCCCCC[N+](C)(C)CC(=O)c1ccccc1)CC(=O)c1ccccc1`, the T/C was 101 % of control (dose: 0.5 mg/kg/injection, schedule: Q04DX003 (ip), vehicle: saline); 94 % of control (dose: 1.0 mg/kg/injection, schedule: Q04DX003 (ip), vehicle: saline); 95 % of control (dose: 2.0 mg/kg/injection, schedule: Q04DX003 (ip), vehicle: saline).

With `CN(C)C(=O)c1cccc(COc2ccc(N)cc2Cl)c1`, the T/C is 113 % of control (dose: 50.0 mg/kg/injection, schedule: Q01DX009 (ip), vehicle: saline); 90 % of control under setting [4]; 104 % of control (dose: 100.0 mg/kg/injection, schedule: Q01DX009 (ip), vehicle: saline); 93 % of control (dose: 200.0 mg/kg/injection, schedule: Q01DX009 (ip), vehicle: saline with Tween-80); 105 % of control (dose: 200.0 mg/kg/injection, schedule: Q01DX009 (ip), vehicle: saline); 87 % of control under setting [3]. Also, the T/C is, setting by setting: (dose: 400.0 mg/kg/injection, schedule: Q01DX009 (ip), vehicle: saline with Tween-80) 95 % of control; under setting [5], 89 % of control.

For `CC(NC(=O)C(CSCc1ccccc1)NC(=O)OCc1ccccc1)C(=O)OCc1ccccc1` (stereo not given), the T/C is 96 % of control under setting [2], 98 % of control under setting [3] and 93 % of control under setting [5].

For `CN(C)[C@@H]1C(=O)C(C(=O)NCNC(Cc2ccc(N(CCCl)CCCl)cc2)C(=O)O)=C(O)[C@@]2(O)C(=O)C3=C(O)c4c(O)cccc4[C@@](C)(O)[C@H]3C[C@@H]12` (stereo not given in full), where the note is “dose: 100.0 mg/kg/injection, schedule: Q01DX001 (ip), vehicle: other”, the T/C is 164 % of control.

In the case of `O=C(CN1CC1)NCCCCCCCCCNC(=O)CN1CC1`, the T/C by setting is: (dose: 22.0 mg/kg/injection, schedule: Q01DX001 (ip), vehicle: carboxymethylcellulose (CMC)) 113 % of control; (dose: 33.0 mg/kg/injection, schedule: Q01DX001 (ip), vehicle: carboxymethylcellulose (CMC)) 117 % of control.

For the compound `OC(C/C(=N\Nc1ccccc1)c1ccc(F)cc1)(C(F)(F)F)C(F)(F)F`, the T/C by setting is: under setting [2], 100 % of control; under setting [3], 98 % of control; under setting [5], 96 % of control.

Turning to `CC(C)(CCC(=O)O)c1cccc(Cl)c1`, the T/C under setting [1] is 96 % of control and the T/C under setting [4] was 93 % of control.
